# Data as given in patent US20220281848A1, “PYRAZOLE-SUBSTITUTED PYRROLIDINONES AS HERBICIDES” (FMC Corporation, priority 2019, published 2022).
# System: plants
# Assay: Test D pre-emergence, other plants of Tables D1 and D3
# Assay type: in vivo
# Details: for ABUTH damage to plant (100=total damage; 0=no damage) / AMARE damage to plant (100=total damage; 0=no damage) / DIGSA damage to plant (100=total damage; 0=no damage) / ECHCG damage to plant (100=total damage; 0=no damage) / ORYSA damage to plant (100=total damage; 0=no damage) / PANMI damage to plant (100=total damage; 0=no damage) / SETFA damage to plant (100=total damage; 0=no damage): preemergent
# Outline: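 Seeds treated with herbicide safener; sown in soil; glasshouse, 16 h light, 65% humidity. Sprayed day 1 (pre) or ~day 12 (post). Spray in 0.2% v/v adjuvant. Scored 0–100 damage: 20 DAA pre, 15 d post.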
# [1] = pre-emergence, rate 15, 20 DAA, 100=total damage, 0=no damage
# [2] = pre-emergence, rate 30, 20 DAA, 100=total damage, 0=no damage
# [3] = pre-emergence, rate 60, 20 DAA, 100=total damage, 0=no damage
# [4] = pre-emergence, rate 130, 20 DAA, 100=total damage, 0=no damage
# [5] = pre-emergence, rate 250, 20 DAA, 100=total damage, 0=no damage
# [6] = pre-emergence, rate 500, 20 DAA, 100=total damage, 0=no damage
structure (smiles),measurement,setting,value
CN1CC(c2cc(C(F)(F)F)n(C)n2)C(C(=O)Nc2ccc(F)cc2C(C)(F)F)C1=O (racemic) [Compound 26],VERPE damage rating,"VERPE, Rates 500, pre-emergence, 20 DAA, 100=total damage, 0=no damage",80
same,"damage to plant, ALOMY",[1],0
same,"damage to plant, AVEFA",[1],0
same,"damage to plant, BEAVA",[1],0
same,"damage to plant, BROTE",[1],0
same,"damage to plant, BRSNN",[1],0
same,"damage to plant, HORVW",[1],0
same,"damage to plant, SINAR",[1],0
same,"damage to plant, ALOMY",[2],0
same,"damage to plant, AVEFA",[2],0
same,"damage to plant, BEAVA",[2],0
same,"damage to plant, BROTE",[2],0
same,"damage to plant, BRSNN",[2],0
same,"damage to plant, HORVW",[2],0
same,"damage to plant, SINAR",[2],0
same,"damage to plant, ALOMY",[3],0
same,"damage to plant, AVEFA",[3],0
same,"damage to plant, BEAVA",[3],0
same,"damage to plant, BROTE",[3],0
same,"damage to plant, BRSNN",[3],0
same,"damage to plant, HORVW",[3],0
same,"damage to plant, SINAR",[3],0
same,"damage to plant, ALOMY",[4],10
same,"damage to plant, AVEFA",[4],10
same,"damage to plant, BEAVA",[4],0
same,"damage to plant, BROTE",[4],0
same,"damage to plant, BRSNN",[4],0
same,"damage to plant, HORVW",[4],10
same,"damage to plant, SINAR",[4],0
same,"damage to plant, ALOMY",[5],70
same,"damage to plant, AVEFA",[5],50
same,"damage to plant, BEAVA",[5],0
same,"damage to plant, BRSNN",[5],0
same,"damage to plant, HORVW",[5],40
same,"damage to plant, SINAR",[5],0
same,"damage to plant, ALOMY",[6],70
same,"damage to plant, AVEFA",[6],90
same,"damage to plant, BEAVA",[6],0
same,"damage to plant, BROTE",[6],10
same,"damage to plant, BRSNN",[6],10
same,"damage to plant, HORVW",[6],30
same,"damage to plant, SINAR",[6],0
same,ABUTH damage to plant (100=total damage; 0=no damage),"Rates 15, 20 DAA",0
same,AMARE damage to plant (100=total damage; 0=no damage),"Rates 15, 20 DAA",0
same,DIGSA damage to plant (100=total damage; 0=no damage),"Rates 15, 20 DAA",20
same,ECHCG damage to plant (100=total damage; 0=no damage),"Rates 15, 20 DAA",0
same,ORYSA damage to plant (100=total damage; 0=no damage),"Rates 15, 20 DAA",0
same,PANMI damage to plant (100=total damage; 0=no damage),"Rates 15, 20 DAA",0
same,SETFA damage to plant (100=total damage; 0=no damage),"Rates 15, 20 DAA",0
same,ABUTH damage to plant (100=total damage; 0=no damage),"Rates 30, 20 DAA",0
same,AMARE damage to plant (100=total damage; 0=no damage),"Rates 30, 20 DAA",0
same,DIGSA damage to plant (100=total damage; 0=no damage),"Rates 30, 20 DAA",90
same,ECHCG damage to plant (100=total damage; 0=no damage),"Rates 30, 20 DAA",10
same,ORYSA damage to plant (100=total damage; 0=no damage),"Rates 30, 20 DAA",0
same,PANMI damage to plant (100=total damage; 0=no damage),"Rates 30, 20 DAA",0
same,SETFA damage to plant (100=total damage; 0=no damage),"Rates 30, 20 DAA",20
same,ABUTH damage to plant (100=total damage; 0=no damage),"Rates 60, 20 DAA",0
same,AMARE damage to plant (100=total damage; 0=no damage),"Rates 60, 20 DAA",0
same,DIGSA damage to plant (100=total damage; 0=no damage),"Rates 60, 20 DAA",90
same,ECHCG damage to plant (100=total damage; 0=no damage),"Rates 60, 20 DAA",30
same,ORYSA damage to plant (100=total damage; 0=no damage),"Rates 60, 20 DAA",0
same,PANMI damage to plant (100=total damage; 0=no damage),"Rates 60, 20 DAA",0
same,SETFA damage to plant (100=total damage; 0=no damage),"Rates 60, 20 DAA",70
same,ABUTH damage to plant (100=total damage; 0=no damage),"Rates 130, 20 DAA",0
same,AMARE damage to plant (100=total damage; 0=no damage),"Rates 130, 20 DAA",0
same,DIGSA damage to plant (100=total damage; 0=no damage),"Rates 130, 20 DAA",90
same,ECHCG damage to plant (100=total damage; 0=no damage),"Rates 130, 20 DAA",20
same,ORYSA damage to plant (100=total damage; 0=no damage),"Rates 130, 20 DAA",0
same,PANMI damage to plant (100=total damage; 0=no damage),"Rates 130, 20 DAA",0
same,SETFA damage to plant (100=total damage; 0=no damage),"Rates 130, 20 DAA",90
same,ABUTH damage to plant (100=total damage; 0=no damage),"Rates 250, 20 DAA",0
same,AMARE damage to plant (100=total damage; 0=no damage),"Rates 250, 20 DAA",70
same,DIGSA damage to plant (100=total damage; 0=no damage),"Rates 250, 20 DAA",90
same,ECHCG damage to plant (100=total damage; 0=no damage),"Rates 250, 20 DAA",60
same,ORYSA damage to plant (100=total damage; 0=no damage),"Rates 250, 20 DAA",0
same,PANMI damage to plant (100=total damage; 0=no damage),"Rates 250, 20 DAA",0
same,SETFA damage to plant (100=total damage; 0=no damage),"Rates 250, 20 DAA",90
same,ABUTH damage to plant (100=total damage; 0=no damage),"Rates 500, 20 DAA",0
same,AMARE damage to plant (100=total damage; 0=no damage),"Rates 500, 20 DAA",60
same,DIGSA damage to plant (100=total damage; 0=no damage),"Rates 500, 20 DAA",90
same,ECHCG damage to plant (100=total damage; 0=no damage),"Rates 500, 20 DAA",90
same,ORYSA damage to plant (100=total damage; 0=no damage),"Rates 500, 20 DAA",0
same,PANMI damage to plant (100=total damage; 0=no damage),"Rates 500, 20 DAA",0
same,SETFA damage to plant (100=total damage; 0=no damage),"Rates 500, 20 DAA",90
